Structures can show the parent of a compound that is named as a salt.
Molecular target: human tryptase
Assay: Inhibition of human tryptase (apparent dissociation constant, tos-Gly-Pro-Arg-pNA cleavage)
Format: biochemical
Settings: in the presence of substrate; heparin 0.1–50 μg/ml; equilibrium conditions; read-out: Kiapp (apparent dissociation constant of tryptase-inhibitor complex)
Description: The documented pathophysiological effects of mast cell tryptase are caused directly by the enzymatic activity of the protease. Accordingly, they are reduced or blocked by inhibitors which inhibit the enzymatic activity of the tryptase. A suitable measure for the affinity of a reversible inhibitor to the target protease is the equilibrium dissociation constant Ki of the enzyme-inhibitor complex. This Ki value can be determined via the effect of the inhibitor on the tryptase-induced cleavage of a chromogenic peptide-p-nitroanilide substrate or a fluorogenic peptide-aminomethylcoumarin substrate.
The dissociation constants for the tryptase-inhibitor complexes are determined under equilibrium conditions in accordance with the general proposals of Bieth (Bieth J G, Pathophysiological interpretation of kinetic constants of protease inhibitors, Bull. Europ. Physiopath. Resp. 16:183–195, 1980) and the methods of Sommerhoff et al. (Sommerhoff C P et al., A Kazal-type inhibitor of human mast cell tryptase: isolation from the medical leech Hirudo medicinalis, characterization, and sequence analysis, Biol. Chem. Hoppe-Seyler 375: 685–694, 1994).
Human tryptase is isolated from lung tissue or prepared recombinantly; the specific activity of the protease, determined by titration, is usually greater than 85% of the theoretical value. In the presence of heparin (0.1–50 μg/ml) for stabilizing the protease, constant amounts of the tryptase are incubated with increasing amounts of the inhibitors. After an equilibrium between the reaction partners has formed, the remaining enzyme activity after addition of the peptide-p-nitroanilide substrate tos-Gly-Pro-Arg-pNA is determined and the cleavage of the latter is monitored at 405 nm for 3 min. Alternatively, the remaining enzymatic activity can also be determined using fluorogenic substrates. The apparent dissociation constants Kiapp (i.e. in the presence of substrate) are subsequently determined by adapting the enzyme rates to the general equation for reversible inhibitors (Morrison J F, Kinetics of the reversible inhibition of enzyme-catalysed reactions by tight-binding inhibitors, Biochim. Biophys. Acta 185, 269–286, 1969) using non-linear regression: V1/V0=1−{Et+It+Kiapp−[(Et+It+Kiapp)^2−4EtIt]^1/2}/2Et
V1 and V0 are the rates in the presence and absence, respectively, of the inhibitor, and Et and It are the tryptase and inhibitor concentrations, respectively.
The apparent dissociation constants determined for the compounds according to the invention are shown in Table A below, where the numbers of the compounds correspond to the numbers of the compounds in the examples.

| SMILES | Ki [nM] |
| --- | --- |
| COC(=O)c1cc(C#CCOC(=O)NCc2cccc(CN)c2)cc(C#CCOC(=O)NCc2cccc(CN)c2)c1 [Compound 2, Methyl 3,5-bis-[3-(3-aminomethylbenzylaminocarbonyloxy)prop-1-ynyl]benzoate dihydrochloride] | 1.6 |
| NCc1ccc(CNC(=O)OCC#Cc2cc(C#CCOC(=O)NCc3ccc(CN)cc3)cc(CO)c2)cc1 [Compound 1, 3,5-Bis-[3-(4-aminomethylbenzylaminocarbonyloxy)prop-1-ynyl]-1-hydroxymethyl-benzene dihydrochloride] | 14 |
| COC(=O)c1cc(C#CCOC(=O)NCc2cccc(CN)c2)c(C(=O)OC)cc1C#CCOC(=O)NCc1cccc(CN)c1 [Compound 8, Dimethyl 2,5-bis-[3-(3-aminomethylbenzylaminocarbonyloxy)prop-1-ynyl]terephthalate dihydrochloride] | 2.3 |
| NCc1cccc(CNC(=O)OCC#Cc2ccc(C#CCOC(=O)NCc3cccc(CN)c3)c(C(=O)O)c2)c1 [Compound 7, 2,5-Bis-[3-(3-aminomethylbenzylaminocarbonyloxy)prop-1-ynyl]benzoic acid dihydrochloride] | 8.6 |
| COC(=O)c1cc(C#CCOC(=O)NCc2ccc(CN)cc2)cc(C#CCOC(=O)NCc2ccc(CN)cc2)c1 [Compound 4, Methyl 3,5-bis-[3-(4-aminomethylbenzylaminocarbonyloxy)prop-1-ynyl]benzoate dihydrochloride] | 58 |
| NCc1cccc(CNC(=O)OCC#Cc2cc(C#CCOC(=O)NCc3cccc(CN)c3)cc(C(=O)O)c2)c1 [Compound 3, 3,5-Bis-[3-(3-aminomethylbenzylaminocarbonyloxy)prop-1-ynyl]benzoic acid dihydrochloride] | 40 |
| COC(=O)c1cc(C#CCOC(=O)NCc2cccc(CN)c2)ccc1C#CCOC(=O)NCc1cccc(CN)c1 [Compound 6, Methyl 2,5-bis-[3-(3-aminomethylbenzylaminocarbonyloxy)prop-1-ynyl]benzoate dihydrochloride] | 0.3 |
| NCc1ccc(CNC(=O)OCC#Cc2cc(C#CCOC(=O)NCc3ccc(CN)cc3)cc(C(=O)O)c2)cc1 [Compound 5, 3,5-Bis-[3-(4-aminomethylbenzylaminocarbonyloxy)prop-1-ynyl]benzoic acid dihydrochloride] | 250 |
| CCOC(=O)c1cc(OCC#CCOC(=O)NCc2cccc(CN)c2)c(C(=O)OCC)cc1OCC#CCOC(=O)NCc1cccc(CN)c1 [Compound 9, Diethyl 2,5-bis-[4-(3-aminomethylbenzylaminocarbonyloxy)but-2-ynyl-1-oxy]terephthalate dihydrochloride] | 6 |
